Data reported in PMC7470982 (2020).

Columns and labels:
[1] = test system: pu39 (DNA, G4) AGGGGCGGGCGCGGGAGGAAGGGGGCGGGAGCGGGGCTG; assay: TO fluorescent intercalator displacement; conditions: K+ (100 mM KCl); 20 mM Tris-HCl pH 7.4; 1 μM DNA, 1 μM thiazole orange displaced
[2] = test system: py39 (DNA, i motif) CAGCCCCGCTCCCGCCCCCTTCCTCCCGCGCCCGCCCCT; assay: TO fluorescent intercalator displacement; conditions: K+ (1x BPES: 100 mM KCl, potassium phosphate); 1x BPES pH 5.5; 1 μM DNA, 1 μM thiazole orange displaced
[3] = test system: FC-KITT (DNA, i motif) CCCTCCTCCCAGCGCCCTCCCT; assay: FRET melting; conditions: 100 mM KCl, potassium phosphate 60 mM; 1× BPES, pH 5.5; 0.2 μM DNA, 4 μM compound
[4] = test system: FVEGFT (DNA, i motif) GACCCCGCCCCCGGCCCGCCCCGG; assay: FRET melting; conditions: 100 mM KCl, potassium phosphate 60 mM; 1× BPES, pH 5.5; 0.2 μM DNA, 4 μM compound
[5] = test system: VEGF (DNA, i motif) GACCCCGCCCCCGGCCCGCCCCGG; assay: CD melting; conditions: 100 mM KCl, potassium phosphate 60 mM; 1× BPES, pH 5.5; 1 μM DNA, 20 μM compound
[6] = test system: bio-py27 (bio-C-MYC) (DNA, i motif) CCTTCCCCACCCTCCCCACCCTCCCCA; assay: SPR; conditions: 100 mM KCl; 20 mM MES, pH 5.5, 25 °C; immobilised DNA
[7] = test system: GC duplex (py39+pu39) (DNA, duplex) CAGCCCCGCTCCCGCCCCCTTCCTCCCGCGCCCGCCCCT/AGGGGCGGGCGCGGGAGGAAGGGGGCGGGAGCGGGGCTG; assay: TO fluorescent intercalator displacement; conditions: 20 mM NaCl; 20 mM Tris-HCl, pH 7.4; 1 μM DNA, 1 μM thiazole orange displaced
[8] = test system: bio-VEGF (DNA, i motif) GACCCCGCCCCCGGCCCGCCCCGG; assay: SPR; conditions: 100 mM KCl; 20 mM MES, pH 5.5, 25 °C; immobilised DNA
[9] = test system: KRAS (DNA, i motif) GCCCGGCCCCCGCTCCTCCCCCGCCGGCCCGGCCCGGCCCCCTCCTTCTCCCCG; assay: CD melting; conditions: 100 mM KCl, potassium phosphate 60 mM; 1× BPES, pH 5.5; 1 μM DNA, 20 μM compound
[10] = test system: Fpy39T (DNA, i motif) CAGCCCCGCTCCCGCCCCCTTCCTCCCGCGCCCGCCCCT; assay: FRET melting; conditions: 100 mM KCl, potassium phosphate 60 mM; 1× BPES, pH 5.5; 0.2 μM DNA, 4 μM compound
[11] = test system: hairpin (DNA, hairpin) CGCGCGCGTTTTCGCGCGCG; assay: TO fluorescent intercalator displacement; conditions: 1 μM DNA, 1 μM thiazole orange displaced
[12] = test system: Fpy27T (F-C-MYC-T) (DNA, i motif) CCTTCCCCACCCTCCCCACCCTCCCCA; assay: FRET melting; conditions: 100 mM KCl, potassium phosphate 60 mM; 1× BPES, pH 5.5; 0.2 μM DNA, 4 μM compound
[13] = test system: py27 (C-MYC) (DNA, i motif) CCTTCCCCACCCTCCCCACCCTCCCCA; assay: CD melting; conditions: 100 mM KCl, potassium phosphate 60 mM; 1× BPES, pH 5.5; 1 μM DNA, 20 μM compound
[14] = test system: bio-hairpin (DNA, hairpin, HEG (non-nucleotide) linker between nucleotides 10 and 11) TATAGCTATATATAGCTATA; assay: SPR; conditions: 100 mM KCl; 20 mM Tris-HCl, pH 7.4, 25 °C; immobilised DNA
[15] = test system: py39 (DNA, i motif) CAGCCCCGCTCCCGCCCCCTTCCTCCCGCGCCCGCCCCT; assay: ITC; conditions: 100 mM KCl, potassium phosphate 60 mM; 1× BPES (1 mM EDTA), pH 5.5, 25 °C; fitted to 1:1 model
[16] = test system: py39 (DNA, i motif) CAGCCCCGCTCCCGCCCCCTTCCTCCCGCGCCCGCCCCT; assay: CD melting; conditions: 100 mM KCl, potassium phosphate 60 mM; 1× BPES, pH 5.5; 1 μM DNA, 20 μM compound
[17] = test system: py27 (C-MYC) (DNA, i motif) CCTTCCCCACCCTCCCCACCCTCCCCA; assay: ITC; conditions: 100 mM KCl, potassium phosphate 60 mM; 1× BPES (1 mM EDTA), pH 5.5, 25 °C; fitted to 1:1 model
[18] = test system: bio-py39 (DNA, i motif) CAGCCCCGCTCCCGCCCCCTTCCTCCCGCGCCCGCCCCT; assay: SPR; conditions: 100 mM KCl; 20 mM MES, pH 5.5, 25 °C; immobilised DNA
[19] = test system: Fpy39 (DNA, i motif) CAGCCCCGCTCCCGCCCCCTTCCTCCCGCGCCCGCCCCT; assay: MST; conditions: 100 mM KCl, potassium phosphate 60 mM; 1× BPES (1 mM EDTA), pH 5.5, 25 °C
[20] = test system: FKRAST (DNA, i motif) GCCCGGCCCCCGCTCCTCCCCCGCCGGCCCGGCCCGGCCCCCTCCTTCTCCCCG; assay: FRET melting; conditions: 100 mM KCl, potassium phosphate 60 mM; 1× BPES, pH 5.5; 0.2 μM DNA, 4 μM compound
[21] = test system: Fpy27 (DNA, i motif) CCTTCCCCACCCTCCCCACCCTCCCCA; assay: MST; conditions: 100 mM KCl, potassium phosphate 60 mM; 1× BPES (1 mM EDTA), pH 5.5, 25 °C
[22] = test system: bio-C-KIT (DNA, i motif) CCCTCCTCCCAGCGCCCTCCCT; assay: SPR; conditions: 100 mM KCl; 20 mM MES, pH 5.5, 25 °C; immobilised DNA
[23] = test system: C-KIT (DNA, i motif) CCCTCCTCCCAGCGCCCTCCCT; assay: CD melting; conditions: 100 mM KCl, potassium phosphate 60 mM; 1× BPES, pH 5.5; 1 μM DNA, 20 μM compound

relative replacement ratio [1]: 10% | relative TO displacement ratio [2]: 52% | ΔTm [3]: -0.52 °C | ΔTm [4]: -0.64 °C | ΔTm [5]: 1.34 °C | KD [6]: 11.95 µM | relative TO displacement ratio [7]: 6% | KD [8]: 36.4 µM | ΔTm [9]: 1.03 °C | ΔTm [10]: 9.15 °C | relative TO displacement ratio [11]: 12% | ΔTm [12]: 3.50 °C | ΔTm [13]: 4.26 °C | KD [14]: > 50 µM | KD [15]: 5.52 µM | ΔTm [16]: 9.63 °C | KD [17]: 11.1 µM | KD [18]: 3.56 µM | KD [19]: 4.69 µM | ΔTm [20]: 1.17 °C | KD [21]: 10.95 µM | KD [22]: 34.5 µM | ΔTm [23]: 0.20 °C
SMILES: Cc1ccc2c(c1)c(=O)c1cc(C(=O)NCCCN3CCOCC3)ccc1n2-c1ccc(C(=O)NCCCN2CCOCC2)cc1
